From patent US10287269B2, “Pyrazolyl pyrimidinone compounds as PDE2 inhibitors” (Merck Sharp & Dohme Corp., priority 2015, dated 2019) come the findings set out here.

Structures are written as SMILES. Like-named read-outs stand apart in the source and are kept apart here.

The assay has as its target T1, Rhesus PDE2A3 (Macaca mulatta, UniProt B3VTJ2).
T1 construct: made in house; host or cells: AD293 cells, transient transfection, pcDNA3.3-TOPO; lysate supernatant used as enzyme
T1 sequence (B3VTJ2 1-941): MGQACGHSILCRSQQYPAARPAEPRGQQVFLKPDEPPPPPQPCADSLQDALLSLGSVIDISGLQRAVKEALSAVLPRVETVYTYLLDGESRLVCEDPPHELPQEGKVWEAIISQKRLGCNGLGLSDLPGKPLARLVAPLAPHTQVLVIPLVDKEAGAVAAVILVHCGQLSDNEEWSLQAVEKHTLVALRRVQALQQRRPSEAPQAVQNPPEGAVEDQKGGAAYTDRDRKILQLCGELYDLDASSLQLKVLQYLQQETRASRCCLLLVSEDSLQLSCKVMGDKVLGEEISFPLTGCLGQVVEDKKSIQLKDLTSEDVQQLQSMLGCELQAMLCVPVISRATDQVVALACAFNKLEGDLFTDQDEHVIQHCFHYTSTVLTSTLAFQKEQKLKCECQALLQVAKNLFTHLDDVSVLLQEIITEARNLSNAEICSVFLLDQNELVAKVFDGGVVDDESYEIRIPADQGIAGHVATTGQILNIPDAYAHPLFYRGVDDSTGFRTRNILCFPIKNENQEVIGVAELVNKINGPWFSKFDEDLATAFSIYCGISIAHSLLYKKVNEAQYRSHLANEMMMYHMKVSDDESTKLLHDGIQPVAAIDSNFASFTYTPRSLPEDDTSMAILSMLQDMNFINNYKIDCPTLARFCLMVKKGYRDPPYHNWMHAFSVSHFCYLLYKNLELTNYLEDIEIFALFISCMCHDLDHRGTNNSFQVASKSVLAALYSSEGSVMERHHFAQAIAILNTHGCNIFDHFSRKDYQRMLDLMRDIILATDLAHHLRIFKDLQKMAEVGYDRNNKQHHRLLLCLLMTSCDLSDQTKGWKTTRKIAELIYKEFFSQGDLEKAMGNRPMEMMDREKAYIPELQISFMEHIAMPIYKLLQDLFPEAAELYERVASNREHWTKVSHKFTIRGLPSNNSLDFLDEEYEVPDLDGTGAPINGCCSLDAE
The assay is described as follows: PDE2 fluorescence polarization (IMAP FP) inhibition assay, rhesus enzyme. Type of assay: biochemical, rhesus macaque. In outline: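 Lysate of AD293 cells transiently expressing rhesus PDE2A3, diluted for ~20% substrate conversion, with 50 nM FAM-cAMP and 1 uM cGMP activator in pH 7.2 Tris/MgCl2 buffer, 60 min at room temperature.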

The mark [1] stands for this setting: Lab A, read-out: Rhesus PDE2 Ki (nM) Lab A.
[2] abbreviates: Lab B, read-out: Rhesus PDE2 Ki (nM) Lab B.

For `COc1ccc(Cc2nc(-c3cnn(C(C)c4ccc(C(F)(F)F)cc4F)c3)cc(=O)[nH]2)cc1OC` (single isomer, unassigned) [Example 67], the Ki reads like this: under setting [1], 0.2 nM; under setting [2], 0.1 nM.

Regarding `COc1ccc(Cc2nc(-c3cnn(C(C)c4ccc(C(F)(F)F)cc4F)c3)cc(=O)[nH]2)cc1` (single isomer, unassigned) [Example 139, (S)- or (R)-6-(1-(1-(2-fluoro-4-(trifluoromethyl)phenyl)ethyl)-1H-pyrazol-4-yl)-2-(4-methoxybenzyl)pyrimidin-4(3H)-one], the Ki under setting [1] amounted to 52.1 nM and the Ki under setting [2] amounted to 19.1 nM.

Consider `Cc1ccc(C(C)n2cc(-c3cc(=O)[nH]c(C)n3)cn2)c(Cl)c1` (single isomer, unassigned) [Example 148, (R)- or (S)-6-(1-(1-(2-chloro-4-methylphenyl)ethyl)-1H-pyrazol-4-yl)-2-methylpyrimidin-4(3H)-one], for which, under setting [1], the Ki worked out at 47.9 nM.

`COc1cc(Cc2nc(-c3cnn(C(C)c4ccc(C(F)(F)F)cc4F)c3)cc(=O)[nH]2)ccc1F` (single isomer, unassigned) [Example 143, (S)- or (R)-2-(4-fluoro-3-methoxybenzyl)-6-(1-(1-(2-fluoro-4-(trifluoromethyl)phenyl)ethyl)-1H-pyrazol-4-yl)pyrimidin-4(3H)-one]: the inhibitory constant (Ki) runs as follows: under setting [1], 21.3 nM; under setting [2], 10.9 nM.

Turning to `COc1ccc(Cc2nc(-c3cnn(C(C)c4ccc(C(F)(F)F)cc4F)c3)cc(=O)[nH]2)cc1F` (single isomer, unassigned) [Example 146, (R)- or (S)-6-(1-(1-(2-fluoro-4-(trifluoromethyl)phenyl)ethyl)-1H-pyrazol-4-yl)-2-(3-fluoro-4-methoxybenzyl)pyrimidin-4(3H)-one], under setting [1], the Ki stood at 31.5 nM.

On to `COc1ccc(Cc2nc(-c3cnn(C(C)c4ccc(C(F)(F)F)cc4)c3)cc(=O)[nH]2)cc1OC` (single isomer, unassigned) [Example 61, (S)- or (R)-2-(3,4-dimethoxybenzyl)-6-(1-(1-(4-(trifluoromethyl)phenyl)ethyl)-1H-pyrazol-4-yl)pyrimidin-4(3H)-one], for which the inhibition constant (Ki) under setting [1] turned out to be 2 nM and the Ki under setting [2] was 1.8 nM.

As for `COc1cc(C(F)(F)F)ccc1[C@@H](C)n1cc(-c2cc(=O)[nH]c(C)n2)cn1` (single isomer, unassigned) [Example 2], the Ki amounted to 43.9 nM under setting [1] and 35.3 nM under setting [2].

`CC(c1ccc(C(F)(F)F)cc1F)n1cc(-c2cc(=O)[nH]c(C3CC3)n2)cn1` (stereo not shown) [Example 10]: under setting [1], the Ki worked out at 25 nM.

Turning to `CCC(c1ccc(C(F)(F)F)cc1)c1cnn(-c2cc(=O)[nH]c(C)n2)c1` (stereo not shown) [Example 129, 2-methyl-6-(4-(1-(4-(trifluoromethyl)phenyl)propyl)-1H-pyrazol-1-yl)pyrimidin-4(3H)-one], the Ki under setting [2] came out at 184 nM.

In the case of `Cc1nc(-n2cc(Cc3ccc(C(F)(F)F)cc3)cn2)cc(=O)[nH]1` [Example 48, 2-methyl-6-(4-(4-(trifluoromethyl)benzyl)-1H-pyrazol-1-yl)pyrimidin-4(3H)-one], the Ki under setting [2] turned out to be 333 nM.

Take `CCCC(c1ccc(C(F)(F)F)cc1)n1cc(-c2cc(=O)[nH]c(C)n2)cn1` (stereo not shown) [Example 154, 2-methyl-6-(1-(1-(4-(trifluoromethyl)phenyl)butyl)-1H-pyrazol-4-yl)pynmidin-4(3H)-one]: the inhibition constant Ki under setting [2] was determined as 244 nM.

`Cc1nc(-n2cc([C@](C)(O)c3ccc(C(F)(F)F)cc3F)cn2)cc(=O)[nH]1` (single isomer, unassigned) [Example 15]: the Ki under setting [2] was determined as 15.6 nM.

In the case of `COc1ccc(Cc2nc(-n3cc(C(C)c4ccc(C(F)(F)F)cc4)cn3)cc(=O)[nH]2)cc1OC` (stereo not shown) [Example 137, 2-(3,4-dimethoxybenzyl)-6-(4-(1-(4-(trifluoromethyl)phenyl)ethyl)-1H-pyrazol-1-yl)pyrimidin-4(3H)-one], the Ki amounted to 1.3 nM under setting [1] and 0.6 nM under setting [2].

On to `Cc1nc(-n2cc(C(C)c3ccc(C4(C)CC4)cc3)cn2)cc(=O)[nH]1` (stereo not shown) [Example 40, 2-methyl-6-(4-(1-(4-(1-methylcyclopropyl)phenyl)ethyl)-1H-pyrazol-1-yl)pyrimidin-4(3H)-one], for which the Ki under setting [2] came to 211 nM.

With `Cc1nc(-n2cc(C(C)c3ccc(C(F)(F)F)cc3F)cn2)cc(=O)[nH]1` (single isomer, unassigned) [Example 53, (S)- or (R)-6-(4-(1-(2-fluoro-4-(trifluoromethyl)phenyl)ethyl)-1H-pyrazol-1-yl)-2-methylpyrimidin-4(3H)-one], the Ki under setting [2] worked out at 64.5 nM.

For the compound `Cc1nc(-n2cc([C@H](CO)c3ccc(C(F)(F)F)cc3F)cn2)cc(=O)[nH]1` (single isomer, unassigned) [Example 20], the Ki under setting [2] was 18.2 nM.

With `Cc1nc(-c2cc([C@H](C)c3ccc(C(F)(F)F)cc3)[nH]n2)cc(=O)[nH]1` (single isomer, unassigned) [Example 24], the Ki under setting [2] stood at 154 nM.

For `Cc1nc(-n2cc(C(c3ccc(C(F)(F)F)cc3)C(C)C)cn2)cc(=O)[nH]1` (stereo not shown) [Example 130], under setting [2], the Ki is 138 nM.

Consider `Cc1nc(-n2cc([C@]3(c4ccc(C(F)(F)F)cc4)CCCO3)cn2)cc(=O)[nH]1` (single isomer, unassigned) [Example 21], for which, under setting [2], the Ki was found to be 213 nM.

Turning to `Cc1nc(-c2cn(C(C)c3ccc(C(F)(F)F)cc3)nc2C)cc(=O)[nH]1` (stereo not shown) [Example 80, 2-methyl-6-(3-methyl-1-(1-(4-(trifluoromethyl)phenyl)ethyl)-1H-pyrazol-4-yl)pyrimidin-4(3H)-one], under setting [2], the Ki stood at 194 nM.

For the compound `Cc1nc(-n2cc(C(C)c3ccc(C4CC4)cc3)cn2)cc(=O)[nH]1` (stereo not shown) [Example 39, 6-(4-(1-(4-cyclopropylphenyl)ethyl)-1H-pyrazol-1-yl)-2-methylpyrimidin-4(3H)-one], the Ki under setting [2] amounted to 99.9 nM.

Take `Cc1nc(-c2cnn(Cc3ccc(OC(F)(F)F)cc3)c2)cc(=O)[nH]1` [Example 29, 2-Methyl-6-(1-(4-(trifluoromethoxy)benzyl)-1H-pyrazol-4-yl)pyrimidin-4(3H)-one]: the inhibition constant (Ki) under setting [2] worked out at 1210 nM.

As to `COc1ccc(Cc2nc(-c3cnn(C(C)c4ccc(C(F)(F)F)cc4)c3)cc(=O)[nH]2)cc1OC` (single isomer, unassigned) [Example 60, (R)- or (S)-2-(3,4-dimethoxybenzyl)-6-(1-(1-4-(trifluoromethyl)phenyl)ethyl)-1H-pyrazol-4-yl)pyrimidin-4(3H)-one], the Ki runs as follows: under setting [1], 3.6 nM; under setting [2], 2.4 nM.

Consider `Cc1nc(-c2cc([C@H](C)c3ccc(C(F)(F)F)cc3)[nH]n2)cc(=O)[nH]1` (single isomer, unassigned) [Example 23], for which the Ki under setting [2] was found to be 29.3 nM.

As to `Cc1nc(-n2cc(Cc3ccc(OC(F)(F)F)cc3)cn2)cc(=O)[nH]1` [Example 30, 2-Methyl-6-(4-(4-(trifluoromethoxy)benzyl)-1H-pyrazol-1-yl)pyrimidin-4(3H)-one], the Ki under setting [2] was determined as 2940 nM.

For the compound `Cc1nc(-n2cc([C@](C)(O)c3ccc(C(F)(F)F)cc3F)cn2)cc(=O)[nH]1` (single isomer, unassigned) [Example 16], the inhibitory constant (Ki) under setting [2] was 75.8 nM.

Regarding `Cc1nc(-n2cc([C@H](C)c3ccc(C(F)(F)F)cc3)cn2)cc(=O)[nH]1` (single isomer, unassigned) [Example 3], the Ki under setting [2] was found to be 93 nM.
